Source: PubChem BioAssay (NCI)
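Growth conditions: 96-well plates. Treatment: test compound, 48 hours, 5 concentrations. Analysis: linear interpolation between bracketing concentrations; unreached endpoints set to highest concentration. At the TGI there is no net growth.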

tested on: 786-0 renal; assay: DTP human tumour cell line panel, 48 h

SMILES | TGI
CC(C)NCCCC(C)Nc1ccnc2ccc3nn(C)nc3c12 (centres undefined) | > 100 µM
O=C(NN1C(=O)C(Cl)C1c1ccc(O)cc1)c1ccccc1O (centres undefined) | 33.5 µM
O/N=C1/C(=C/c2ccc(Cl)c(Cl)c2)CCCC1C(NO)c1ccc(Cl)c(Cl)c1 (centres undefined) | 42.4 µM
CCOc1ccc(N=Nc2ccc3oc(=O)c(/C(C)=N/NC(=O)CC(=O)Nc4cccc(OC)c4)cc3c2)cc1 | 22.3 µM
O=[N+]([O-])c1ccc(C2=Nn3c(nnc3-c3ccccc3)SC2)o1 | 40.7 µM

tested on: A498 renal; assay: DTP human tumour cell line panel, 48 h

SMILES | TGI
CC(C)NCCCC(C)Nc1ccnc2ccc3nn(C)nc3c12 (centres undefined) | > 100 µM
O/N=C1/C(=C/c2ccc(Cl)c(Cl)c2)CCCC1C(NO)c1ccc(Cl)c(Cl)c1 (centres undefined) | 27.4 µM
O=[N+]([O-])c1ccc(C2=Nn3c(nnc3-c3ccccc3)SC2)o1 | > 100 µM

tested on: A549 NSCLC; assay: DTP human tumour cell line panel, 48 h

SMILES | TGI
CC(C)NCCCC(C)Nc1ccnc2ccc3nn(C)nc3c12 (centres undefined) | > 100 µM
O=C(NN1C(=O)C(Cl)C1c1ccc(O)cc1)c1ccccc1O (centres undefined) | 50 µM
O/N=C1/C(=C/c2ccc(Cl)c(Cl)c2)CCCC1C(NO)c1ccc(Cl)c(Cl)c1 (centres undefined) | 41.3 µM
CCOc1ccc(N=Nc2ccc3oc(=O)c(/C(C)=N/NC(=O)CC(=O)Nc4cccc(OC)c4)cc3c2)cc1 | > 74.6 µM
O=[N+]([O-])c1ccc(C2=Nn3c(nnc3-c3ccccc3)SC2)o1 | > 100 µM

tested on: ACHN renal; assay: DTP human tumour cell line panel, 48 h

SMILES | TGI
CC(C)NCCCC(C)Nc1ccnc2ccc3nn(C)nc3c12 (centres undefined) | > 100 µM
O=C(NN1C(=O)C(Cl)C1c1ccc(O)cc1)c1ccccc1O (centres undefined) | 34.5 µM
O/N=C1/C(=C/c2ccc(Cl)c(Cl)c2)CCCC1C(NO)c1ccc(Cl)c(Cl)c1 (centres undefined) | 33 µM
CCOc1ccc(N=Nc2ccc3oc(=O)c(/C(C)=N/NC(=O)CC(=O)Nc4cccc(OC)c4)cc3c2)cc1 | 51.6 µM
O=[N+]([O-])c1ccc(C2=Nn3c(nnc3-c3ccccc3)SC2)o1 | 33.8 µM

tested on: CAKI-1 renal; assay: DTP human tumour cell line panel, 48 h

SMILES | TGI
CC(C)NCCCC(C)Nc1ccnc2ccc3nn(C)nc3c12 (centres undefined) | > 100 µM
O/N=C1/C(=C/c2ccc(Cl)c(Cl)c2)CCCC1C(NO)c1ccc(Cl)c(Cl)c1 (centres undefined) | 34 µM
CCOc1ccc(N=Nc2ccc3oc(=O)c(/C(C)=N/NC(=O)CC(=O)Nc4cccc(OC)c4)cc3c2)cc1 | > 45.4 µM
O=[N+]([O-])c1ccc(C2=Nn3c(nnc3-c3ccccc3)SC2)o1 | 35 µM

tested on: CCRF-CEM leukemia; assay: DTP human tumour cell line panel, 48 h

SMILES | TGI
CC(C)NCCCC(C)Nc1ccnc2ccc3nn(C)nc3c12 (centres undefined) | > 100 µM
O=C(NN1C(=O)C(Cl)C1c1ccc(O)cc1)c1ccccc1O (centres undefined) | > 100 µM
O/N=C1/C(=C/c2ccc(Cl)c(Cl)c2)CCCC1C(NO)c1ccc(Cl)c(Cl)c1 (centres undefined) | 46.1 µM
CCOc1ccc(N=Nc2ccc3oc(=O)c(/C(C)=N/NC(=O)CC(=O)Nc4cccc(OC)c4)cc3c2)cc1 | 21.6 µM
O=[N+]([O-])c1ccc(C2=Nn3c(nnc3-c3ccccc3)SC2)o1 | 20.2 µM

tested on: COLO 205 colon; assay: DTP human tumour cell line panel, 48 h

SMILES | TGI
CC(C)NCCCC(C)Nc1ccnc2ccc3nn(C)nc3c12 (centres undefined) | > 100 µM
O/N=C1/C(=C/c2ccc(Cl)c(Cl)c2)CCCC1C(NO)c1ccc(Cl)c(Cl)c1 (centres undefined) | 35.7 µM
CCOc1ccc(N=Nc2ccc3oc(=O)c(/C(C)=N/NC(=O)CC(=O)Nc4cccc(OC)c4)cc3c2)cc1 | 78.3 µM
O=[N+]([O-])c1ccc(C2=Nn3c(nnc3-c3ccccc3)SC2)o1 | 49.9 µM

tested on: DLD-1 colon; assay: DTP human tumour cell line panel, 48 h

SMILES | TGI
CC(C)NCCCC(C)Nc1ccnc2ccc3nn(C)nc3c12 (centres undefined) | > 100 µM
O=C(NN1C(=O)C(Cl)C1c1ccc(O)cc1)c1ccccc1O (centres undefined) | 30.6 µM
O/N=C1/C(=C/c2ccc(Cl)c(Cl)c2)CCCC1C(NO)c1ccc(Cl)c(Cl)c1 (centres undefined) | 37 µM
CCOc1ccc(N=Nc2ccc3oc(=O)c(/C(C)=N/NC(=O)CC(=O)Nc4cccc(OC)c4)cc3c2)cc1 | 45.5 µM
O=[N+]([O-])c1ccc(C2=Nn3c(nnc3-c3ccccc3)SC2)o1 | 30.2 µM

tested on: DMS 114 small cell lung; assay: DTP human tumour cell line panel, 48 h

SMILES | TGI
CC(C)NCCCC(C)Nc1ccnc2ccc3nn(C)nc3c12 (centres undefined) | > 100 µM
O=C(NN1C(=O)C(Cl)C1c1ccc(O)cc1)c1ccccc1O (centres undefined) | 29.6 µM
O/N=C1/C(=C/c2ccc(Cl)c(Cl)c2)CCCC1C(NO)c1ccc(Cl)c(Cl)c1 (centres undefined) | 37.3 µM
CCOc1ccc(N=Nc2ccc3oc(=O)c(/C(C)=N/NC(=O)CC(=O)Nc4cccc(OC)c4)cc3c2)cc1 | 44.5 µM
O=[N+]([O-])c1ccc(C2=Nn3c(nnc3-c3ccccc3)SC2)o1 | 38.8 µM

tested on: DMS 273 small cell lung; assay: DTP human tumour cell line panel, 48 h

SMILES | TGI
CC(C)NCCCC(C)Nc1ccnc2ccc3nn(C)nc3c12 (centres undefined) | > 100 µM
O=C(NN1C(=O)C(Cl)C1c1ccc(O)cc1)c1ccccc1O (centres undefined) | 25.5 µM
O/N=C1/C(=C/c2ccc(Cl)c(Cl)c2)CCCC1C(NO)c1ccc(Cl)c(Cl)c1 (centres undefined) | 36 µM
CCOc1ccc(N=Nc2ccc3oc(=O)c(/C(C)=N/NC(=O)CC(=O)Nc4cccc(OC)c4)cc3c2)cc1 | > 71.2 µM
O=[N+]([O-])c1ccc(C2=Nn3c(nnc3-c3ccccc3)SC2)o1 | 48.7 µM

tested on: EKVX NSCLC; assay: DTP human tumour cell line panel, 48 h

SMILES | TGI
CC(C)NCCCC(C)Nc1ccnc2ccc3nn(C)nc3c12 (centres undefined) | > 100 µM
O/N=C1/C(=C/c2ccc(Cl)c(Cl)c2)CCCC1C(NO)c1ccc(Cl)c(Cl)c1 (centres undefined) | 42.9 µM
CCOc1ccc(N=Nc2ccc3oc(=O)c(/C(C)=N/NC(=O)CC(=O)Nc4cccc(OC)c4)cc3c2)cc1 | 55.5 µM
O=[N+]([O-])c1ccc(C2=Nn3c(nnc3-c3ccccc3)SC2)o1 | > 100 µM

tested on: HCC-2998 colon; assay: DTP human tumour cell line panel, 48 h

SMILES | TGI
CC(C)NCCCC(C)Nc1ccnc2ccc3nn(C)nc3c12 (centres undefined) | > 100 µM
O/N=C1/C(=C/c2ccc(Cl)c(Cl)c2)CCCC1C(NO)c1ccc(Cl)c(Cl)c1 (centres undefined) | 36.8 µM
CCOc1ccc(N=Nc2ccc3oc(=O)c(/C(C)=N/NC(=O)CC(=O)Nc4cccc(OC)c4)cc3c2)cc1 | 30.2 µM
O=[N+]([O-])c1ccc(C2=Nn3c(nnc3-c3ccccc3)SC2)o1 | 35.7 µM

tested on: HCT-116 colon; assay: DTP human tumour cell line panel, 48 h

SMILES | TGI
CC(C)NCCCC(C)Nc1ccnc2ccc3nn(C)nc3c12 (centres undefined) | > 100 µM
O=C(NN1C(=O)C(Cl)C1c1ccc(O)cc1)c1ccccc1O (centres undefined) | 28.5 µM
O/N=C1/C(=C/c2ccc(Cl)c(Cl)c2)CCCC1C(NO)c1ccc(Cl)c(Cl)c1 (centres undefined) | 30.3 µM
CCOc1ccc(N=Nc2ccc3oc(=O)c(/C(C)=N/NC(=O)CC(=O)Nc4cccc(OC)c4)cc3c2)cc1 | 33.7 µM
O=[N+]([O-])c1ccc(C2=Nn3c(nnc3-c3ccccc3)SC2)o1 | 35.6 µM

tested on: HCT-15 colon; assay: DTP human tumour cell line panel, 48 h

SMILES | TGI
O=C(NN1C(=O)C(Cl)C1c1ccc(O)cc1)c1ccccc1O (centres undefined) | 30.6 µM
O/N=C1/C(=C/c2ccc(Cl)c(Cl)c2)CCCC1C(NO)c1ccc(Cl)c(Cl)c1 (centres undefined) | 37.2 µM
CCOc1ccc(N=Nc2ccc3oc(=O)c(/C(C)=N/NC(=O)CC(=O)Nc4cccc(OC)c4)cc3c2)cc1 | > 86.3 µM
O=[N+]([O-])c1ccc(C2=Nn3c(nnc3-c3ccccc3)SC2)o1 | 38.2 µM

tested on: HL-60(TB) leukemia; assay: DTP human tumour cell line panel, 48 h

SMILES | TGI
CC(C)NCCCC(C)Nc1ccnc2ccc3nn(C)nc3c12 (centres undefined) | > 100 µM
